From PMC7901646, “Pyrrolo[2′,3′:3,4]cyclohepta[1,2-d][1,2]oxazoles, a New Class of Antimitotic Agents Active against Multiple Malignant Cell Types” (Journal of Medicinal Chemistry, 2020)

Tests used:
Type in all cases: cell-based
[1] = tested on: NCI-60 panel of human cancer cell lines; test: NCI in vitro human tumor cell line screening, full panel; conditions: full NCI panel
From the text: (§1) on the full NCI-60 panel comprising cancer cell lines derived from nine human cancer cell types (leukemia, non-small-cell lung, colon, central nervous system, melanoma, ovarian, renal, prostate, and breast).[50]

A498 = test: NCI-60 screen; conditions: Homo sapiens, Renal Cancer
Experimental: as §1, with “All the synthesized compounds 51–76 were tested at a 10^–5 M concentration for their antitumor activity on the” for “on the”

ACHN = test: NCI-60 screen; conditions: Homo sapiens, Renal Cancer
Experimental: as §1, with “All the synthesized compounds 51–76 were tested at a 10^–5 M concentration for their antitumor activity on the” for “on the”

CCRF-CEM = test: NCI-60 screen; conditions: Homo sapiens, Leukemia
Experimental: as §1, with “All the synthesized compounds 51–76 were tested at a 10^–5 M concentration for their antitumor activity on the” for “on the”

COLO 205 = test: NCI-60 screen; conditions: Homo sapiens, Colon Cancer
Experimental: as §1, with “All the synthesized compounds 51–76 were tested at a 10^–5 M concentration for their antitumor activity on the” for “on the”

DU-145 = test: NCI-60 screen; conditions: Homo sapiens, Prostate Cancer
Experimental: as §1, with “All the synthesized compounds 51–76 were tested at a 10^–5 M concentration for their antitumor activity on the” for “on the”

HCT-116 = test: NCI-60 screen; conditions: Homo sapiens, Colon Cancer
Experimental: as §1, with “All the synthesized compounds 51–76 were tested at a 10^–5 M concentration for their antitumor activity on the” for “on the”

K-562 = test: NCI-60 screen; conditions: Homo sapiens, K562; Leukemia
Experimental: as §1, with “All the synthesized compounds 51–76 were tested at a 10^–5 M concentration for their antitumor activity on the” for “on the”

M14 = test: NCI-60 screen; conditions: Homo sapiens, Melanoma
Experimental: as §1, with “All the synthesized compounds 51–76 were tested at a 10^–5 M concentration for their antitumor activity on the” for “on the”

MCF7 = test: NCI-60 screen; conditions: Homo sapiens, Breast Cancer
Experimental: as §1, with “All the synthesized compounds 51–76 were tested at a 10^–5 M concentration for their antitumor activity on the” for “on the”

MDA-MB-231/ATCC = test: NCI-60 screen; conditions: Homo sapiens, Breast Cancer
Experimental: as §1, with “All the synthesized compounds 51–76 were tested at a 10^–5 M concentration for their antitumor activity on the” for “on the”

MDA-MB-435 = test: NCI-60 screen; conditions: Homo sapiens, Melanoma
Experimental: as §1, with “All the synthesized compounds 51–76 were tested at a 10^–5 M concentration for their antitumor activity on the” for “on the”

MOLT-4 = test: NCI-60 screen; conditions: Homo sapiens, Leukemia
Experimental: as §1, with “All the synthesized compounds 51–76 were tested at a 10^–5 M concentration for their antitumor activity on the” for “on the”

NCI-H226 = test: NCI-60 screen; conditions: Homo sapiens, Non-Small-Cell Lung Cancer
Experimental: as §1, with “All the synthesized compounds 51–76 were tested at a 10^–5 M concentration for their antitumor activity on the” for “on the”

NCI-H460 = test: NCI-60 screen; conditions: Homo sapiens, Non-Small-Cell Lung Cancer
Experimental: as §1, with “All the synthesized compounds 51–76 were tested at a 10^–5 M concentration for their antitumor activity on the” for “on the”

NCI/ADR-RES = test: NCI-60 screen; conditions: Homo sapiens, Ovarian Cancer
Experimental: as §1, with “All the synthesized compounds 51–76 were tested at a 10^–5 M concentration for their antitumor activity on the” for “on the”

PC-3 = test: NCI-60 screen; conditions: Homo sapiens, Prostate Cancer
Experimental: as §1, with “All the synthesized compounds 51–76 were tested at a 10^–5 M concentration for their antitumor activity on the” for “on the”

SF-268 = test: NCI-60 screen; conditions: Homo sapiens, CNS Cancer
Experimental: as §1, with “All the synthesized compounds 51–76 were tested at a 10^–5 M concentration for their antitumor activity on the” for “on the”

SK-MEL-5 = test: NCI-60 screen; conditions: Homo sapiens, Melanoma
Experimental: as §1, with “All the synthesized compounds 51–76 were tested at a 10^–5 M concentration for their antitumor activity on the” for “on the”

SNB-19 = test: NCI-60 screen; conditions: Homo sapiens, CNS Cancer
Experimental: as §1, with “All the synthesized compounds 51–76 were tested at a 10^–5 M concentration for their antitumor activity on the” for “on the”

SR = test: NCI-60 screen; conditions: Homo sapiens, Leukemia
Experimental: as §1, with “All the synthesized compounds 51–76 were tested at a 10^–5 M concentration for their antitumor activity on the” for “on the”

UACC-62 = test: NCI-60 screen; conditions: Homo sapiens, Melanoma
Experimental: as §1, with “All the synthesized compounds 51–76 were tested at a 10^–5 M concentration for their antitumor activity on the” for “on the”

KM12 = test: NCI-60 screen; conditions: Homo sapiens, Colon Cancer
From the text: as §1

LOX IMVI = test: NCI-60 screen; conditions: Homo sapiens, Melanoma
From the text: as §1

NCI-H522 = test: NCI-60 screen; conditions: Homo sapiens, Non-Small-Cell Lung Cancer
From the text: as §1

OVCAR-3 = test: NCI-60 screen; conditions: Homo sapiens, Ovarian Cancer
From the text: as §1

HBL1 (ABC DLBCL) = test: MTT cell proliferation, lymphoma; conditions: Homo sapiens, 72 h
Experimental: (§2) All compounds were further tested at the concentration of 1 μM on four cell lines derived from distinct lymphoma histotypes, plus two with secondary resistance to the PI3Kδ inhibitor idelalisib[51] or to the BTK inhibitor ibrutinib.[52] […] For comparison, the same experiments were conducted using compound 3, but the response to it was minimal, and thus it was not considered further.
(§3) Established human cell lines derived from germinal center B-cell (GCB) (SU-DHL-10), activated B-cell (ABC) (HBL1) diffuse large B-cell lymphoma (DLBCL), mantle cell lymphoma (MCL) (MINO), splenic marginal zone lymphoma (SMZL) (parental VL51, VL51 idelalisib resistant clone, VL51 ibrutinib resistant clone) were cultured in culture RPMI-1640 media supplemented with fetal bovine serum (10%), penicillin–streptomycin–neomycin (∼5,000 units of penicillin, 5 mg of streptomycinm and 10 mg of neomycin/mL, Sigma), and L-glutamine (1%). Vincristine sulfate was purchased from Sigma-Aldrich. Cell line identities were confirmed by CellCheck test (IDEXX, BioResearch, Ludwigsburg, Germany). All compounds were dissolved in dimethyl sulfoxide to obtain a stock concentration of 10 mM.
(§4) The antiproliferative activity of all compounds was assessed by using the 3-(4.5-dimethylthiazolyl-2)-2,5-diphenyltetrazolium bromide (MTT) test. Cells were seeded in 96-well plates (nontissue culture treated) at a density of 1 × 10^5 cells/mL and treated with a single concentration of 1 μM for 72 h. […] In this case, cells were treated in triplicate with serially diluted compounds in the appropriate tissue culture medium at a range of 40–10 000 nM. Cells were incubated for 72 h at 37 °C, 5% CO2. Wells containing medium only were included on each plate and served as blanks for absorbance readings. MTT (Sigma, Buchs, Switzerland) was prepared as a 5 mg/mL stock solution in phosphate buffered saline (PBS) and filter-sterilized. MTT solution (22 μL) was added to each well, and tissue culture plates were incubated at 37 °C for 4 h. Cells were then lysed with 25% sodium dodecyl sulfate lysis buffer, and absorbance was read at 570 nm using a Beckman Coulter-AD340 plate reader.

MINO (MCL) = test: MTT cell proliferation, lymphoma; conditions: Homo sapiens, 72 h
Experimental: as §2, §3, §4

SU-DHL-10 (GCB DLBCL) = test: MTT cell proliferation, lymphoma; conditions: Homo sapiens, SU-DHL10, 72 h
Experimental: as §2, §3, §4

VL51 (MZL) = test: MTT cell proliferation, lymphoma; conditions: Homo sapiens, 72 h
Experimental: as §2, §3, §4

VL51 ibrutinib-resistant = test: MTT cell proliferation, lymphoma; conditions: Homo sapiens, 72 h, of untreated cells, read-out: Proliferating cells (%)
Experimental: as §2, §3, §4

[2] = tested on: VL51 idelalisib-resistant; test: MTT cell proliferation, lymphoma; conditions: Homo sapiens, 72 h, of untreated cells, read-out: Proliferating cells (%)
Experimental: as §2, §3, §4

[3] = 1 μM, of untreated cells, read-out: Proliferating cells (%)

CCOC(=O)c1cc2c(n1Cc1ccccc1OC)-c1oncc1CCC2 [Compound 62, Ethyl 9-(2-Methoxybenzyl)-4,5,6,9-tetrahydropyrrolo[2′,3′:3,4]cyclohepta[1,2-d][1,2]oxazole-8-carboxylate]
GI50 ([1]; Homo sapiens, five concentrations 10^–4–10^–8 M, read-out: GI50 (concentration that inhibits 50% net cell growth), range over panel): 0.3 to 46.2 µM
MG_MID (mean graph midpoint) ([1]; arithmetic mean for all tested cancer cell lines): 4.47 µM
GI50 (A498): 3.46 µM
GI50 (ACHN): 16.6 µM
GI50 (CCRF-CEM): 2870 nM
GI50 (COLO 205): 870 nM
GI50 (DU-145): 5.27 µM
GI50 (HCT-116): 3.79 µM
GI50 (K-562): 1590 nM
GI50 (M14): 3.67 µM
GI50 (MCF7): 710 nM
GI50 (MDA-MB-231/ATCC): 9.12 µM
GI50 (MDA-MB-435): 350 nM
GI50 (MOLT-4): 5.68 µM
GI50 (NCI-H226): > 100 µM
GI50 (NCI-H460): 3.88 µM
GI50 (NCI/ADR-RES): 1360 nM
GI50 (PC-3): 2480 nM
GI50 (SF-268): 46.2 µM
GI50 (SK-MEL-5): 2610 nM
GI50 (SNB-19): 64.7 µM
GI50 (SR): 430 nM
GI50 (UACC-62): 3.37 µM
GI50 (KM12): 2100 nM
GI50 (LOX IMVI): 7.64 µM
GI50 (NCI-H522): 350 nM
GI50 (OVCAR-3): 870 nM
activity at 1 µM (HBL1 (ABC DLBCL); [3]): 128%
IC50 (HBL1 (ABC DLBCL); MTT): > 5 µM
activity at 1 µM (MINO (MCL); [3]): 104%
IC50 (MINO (MCL); MTT): 4 µM
activity at 1 µM (SU-DHL-10 (GCB DLBCL); [3]): 51.1%
IC50 (SU-DHL-10 (GCB DLBCL); MTT): 3.6 µM
activity at 1 µM (VL51 (MZL); [3]): 71.3%
IC50 (VL51 (MZL); MTT): 3.2 µM
activity at 1 µM (VL51 ibrutinib-resistant): 80.3%
activity at 1 µM [2]: 63.6%
